Several values for one entry are separate records, joined by “and”; a condition that tells them apart may be missing. Identical values can stand only once. ± gives the expanded uncertainty stated by the source.
Assay: mn = molality of the nth substance listed, in mol/kg
Settings: 350 kPa, Liquid

O=[N+]([O-])[O-].O=[N+]([O-])[O-].[Sr+2] [strontium nitrate] + O
mass density [kg/m3]
Settings | m1 = 0.0499 | m1 = 0.1006 | m1 = 0.2005 | m1 = 0.4995 | m1 = 0.7992 | m1 = 0.9995 | m1 = 1.502 | m1 = 2.003 | m1 = 3.001
278.15 K | 1009 ± 0.18 | 1017.14 ± 0.2 | 1034.72 ± 0.2 | 1082.77 ± 0.23 | 1130.52 ± 0.27 | 1158.71 ± 0.29 | 1231.7 ± 0.37 | 1297.55 ± 0.44 | 1414.38 ± 0.6
283.15 K | 1008.59 ± 0.19 | 1017.1 ± 0.2 | 1033.98 ± 0.2 | 1082.1 ± 0.23 | 1128.88 ± 0.27 | 1157.52 ± 0.29 | 1229.46 ± 0.37 | 1295.12 ± 0.44 | 1411.42 ± 0.6
288.15 K | 1007.84 ± 0.19 | 1016.26 ± 0.19 | 1032.93 ± 0.2 | 1080.71 ± 0.23 | 1126.92 ± 0.27 | 1155.34 ± 0.29 | 1226.86 ± 0.37 | 1292.1 ± 0.44 | 1407.51 ± 0.59
298.15 K | 1005.56 ± 0.19 | 1013.81 ± 0.19 | 1030.24 ± 0.19 | 1077.19 ± 0.23 | 1122.76 ± 0.26 | 1150.87 ± 0.29 | 1221.49 ± 0.36 | 1286.04 ± 0.43 | 1400.33 ± 0.58
308.15 K | 1002.4 ± 0.19 | 1010.56 ± 0.19 | 1026.7 ± 0.19 | 1073.1 ± 0.22 | 1117.95 ± 0.26 | 1146.06 ± 0.28 | 1215.55 ± 0.35 | 1279.41 ± 0.43 | 1393.17 ± 0.58
318.15 K | 998.47 ± 0.18 | 1006.61 ± 0.18 | 1022.45 ± 0.19 | 1068.41 ± 0.22 | 1112.6 ± 0.25 | 1140.61 ± 0.27 | 1209.17 ± 0.35 | 1272.01 ± 0.42 | 1385.59 ± 0.57
328.15 K | 993.97 ± 0.19 | 1001.97 ± 0.18 | 1017.66 ± 0.18 | 1063.12 ± 0.21 | 1106.82 ± 0.25 | 1134.72 ± 0.27 | 1201.99 ± 0.34 | 1264.61 ± 0.41 | 1377.87 ± 0.56
338.15 K | 988.74 ± 0.19 | 996.66 ± 0.18 | 1012.18 ± 0.18 | 1057.26 ± 0.21 | 1100.32 ± 0.24 | 1128.27 ± 0.26 | 1194.55 ± 0.33 | 1256.5 ± 0.4 | 1369.7 ± 0.55
348.15 K | 983.02 ± 0.19 | 990.85 ± 0.18 | 1006.4 ± 0.18 | 1051.04 ± 0.2 | 1094.06 ± 0.24 | 1121.59 ± 0.26 | 1188.05 ± 0.33 | 1249.78 ± 0.39 | 1361.53 ± 0.54
358.15 K | 976.66 ± 0.19 | 984.57 ± 0.19 | 999.95 ± 0.17 | 1044.34 ± 0.2 | 1087.19 ± 0.23 | 1114.51 ± 0.25 | 1180.88 ± 0.32 | 1242.32 ± 0.39 | 1353.05 ± 0.53
368.15 K | 969.9 ± 0.2 | 977.81 ± 0.19 | 993.09 ± 0.18 | 1037.31 ± 0.19 | 1079.94 ± 0.22 | 1107.09 ± 0.25 | 1173.15 ± 0.31 | 1234.38 ± 0.38 | 1344.4 ± 0.52

O=[N+]([O-])[O-].O=[N+]([O-])[O-].[Mg+2] [magnesium nitrate] + O
mass density [kg/m3]
Settings | m1 = 0.0228 | m1 = 0.0567 | m1 = 0.1086 | m1 = 0.2145 | m1 = 0.3197 | m1 = 0.4749 | m1 = 0.6211 | m1 = 0.811 | m1 = 1 | m1 = 1.014
278.15 K | 1002.6 ± 0.14 | 1006.37 ± 0.14 | 1012.2 ± 0.14 | 1023.83 ± 0.15 | 1035.31 ± 0.16 | 1051.77 ± 0.17 | 1066.82 ± 0.18 | 1086.01 ± 0.2 | 1104.79 ± 0.21 | 1106.04 ± 0.21
283.15 K | 1002.29 ± 0.14 | 1005.98 ± 0.14 | 1011.77 ± 0.14 | 1023.21 ± 0.15 | 1034.48 ± 0.16 | 1050.8 ± 0.17 | 1065.63 ± 0.18 | 1084.59 ± 0.2 | 1103.2 ± 0.21 | 1104.4 ± 0.21
288.15 K | 1001.64 ± 0.14 | 1005.28 ± 0.14 | 1011.01 ± 0.14 | 1022.29 ± 0.15 | 1033.42 ± 0.16 | 1049.55 ± 0.17 | 1064.22 ± 0.18 | 1082.99 ± 0.19 | 1101.41 ± 0.21 | 1102.61 ± 0.2
298.15 K | 999.48 ± 0.14 | 1003.07 ± 0.14 | 1008.68 ± 0.14 | 1019.73 ± 0.15 | 1030.65 ± 0.15 | 1046.49 ± 0.16 | 1060.93 ± 0.17 | 1079.39 ± 0.19 | 1097.46 ± 0.21 | 1098.71 ± 0.2
308.15 K | 996.42 ± 0.14 | 999.96 ± 0.13 | 1005.49 ± 0.14 | 1016.39 ± 0.14 | 1027.14 ± 0.15 | 1042.74 ± 0.16 | 1056.98 ± 0.17 | 1075.19 ± 0.19 | 1093.03 ± 0.2 | 1094.27 ± 0.2
318.15 K | 992.59 ± 0.14 | 996.09 ± 0.14 | 1001.54 ± 0.13 | 1012.32 ± 0.14 | 1022.97 ± 0.15 | 1038.38 ± 0.16 | 1052.47 ± 0.17 | 1070.47 ± 0.18 | 1088.14 ± 0.2 | 1089.36 ± 0.19
328.15 K | 988.06 ± 0.14 | 991.53 ± 0.14 | 996.93 ± 0.13 | 1007.61 ± 0.14 | 1018.17 ± 0.14 | 1033.44 ± 0.15 | 1047.38 ± 0.16 | 1065.25 ± 0.18 | 1082.78 ± 0.19 | 1083.97 ± 0.19
338.15 K | 982.92 ± 0.15 | 986.36 ± 0.14 | 991.75 ± 0.14 | 1002.35 ± 0.13 | 1012.86 ± 0.14 | 1027.99 ± 0.15 | 1041.88 ± 0.16 | 1059.64 ± 0.17 | 1077.04 ± 0.19 | 1078.2 ± 0.18
348.15 K | 977.2 ± 0.15 | 980.38 ± 0.14 | 985.71 ± 0.14 | 996.29 ± 0.14 | 1007.11 ± 0.14 | 1022.17 ± 0.14 | 1035.94 ± 0.15 | 1053.67 ± 0.17 | 1071 ± 0.17 | 1071.85 ± 0.17
358.15 K | 970.99 ± 0.16 | 974.49 ± 0.15 | 979.87 ± 0.15 | 990.4 ± 0.14 | 1000.85 ± 0.13 | 1015.92 ± 0.14 | 1029.76 ± 0.15 | 1047.38 ± 0.16 | 1064.73 ± 0.18 | 1065.89 ± 0.17
368.15 K | 964.33 ± 0.16 | 967.8 ± 0.16 | 973.17 ± 0.15 | 983.77 ± 0.14 | 994.23 ± 0.14 | 1009.33 ± 0.14 | 1023.17 ± 0.15 | 1040.85 ± 0.16 | 1058.19 ± 0.17 | 1059.34 ± 0.17

O=[N+]([O-])[O-].O=[N+]([O-])[O-].[Mn+2] [manganese nitrate] + O
mass density
Settings | m1 = 0.0248 | m1 = 0.0503 | m1 = 0.0836 | m1 = 0.5132
278.15 K | 1003.65 ± 0.16 kg/m3 | 1007.23 ± 0.17 kg/m3 | 1011.97 ± 0.17 kg/m3 | 1069.81 ± 0.2 kg/m3 and 1069.71 ± 0.2 kg/m3
283.15 K | 1003.3 ± 0.17 kg/m3 | 1006.89 ± 0.17 kg/m3 | 1011.53 ± 0.16 kg/m3 | 1068.8 ± 0.2 kg/m3 and 1068.6 ± 0.2 kg/m3
288.15 K | 1002.66 ± 0.17 kg/m3 | 1006.23 ± 0.16 kg/m3 | 1010.8 ± 0.16 kg/m3 | 1067.5 ± 0.2 kg/m3 and 1067.36 ± 0.2 kg/m3
298.15 K | 1000.56 ± 0.17 kg/m3 | 1004.07 ± 0.16 kg/m3 | 1008.54 ± 0.15 kg/m3 | 1064.29 ± 0.2 kg/m3 and 1064.16 ± 0.2 kg/m3
308.15 K | 997.52 ± 0.17 kg/m3 | 1000.98 ± 0.16 kg/m3 | 1005.36 ± 0.15 kg/m3 | 1060.4 ± 0.19 kg/m3 and 1060.29 ± 0.19 kg/m3
318.15 K | 993.61 ± 0.17 kg/m3 | 997.07 ± 0.16 kg/m3 | 1001.42 ± 0.15 kg/m3 | 1055.86 ± 0.19 kg/m3 and 1055.72 ± 0.19 kg/m3
328.15 K | 988.96 ± 0.17 kg/m3 | 992.44 ± 0.16 kg/m3 | 996.79 ± 0.15 kg/m3 | 1050.75 ± 0.18 kg/m3 and 1050.71 ± 0.18 kg/m3
338.15 K | 983.93 ± 0.17 kg/m3 | 987.31 ± 0.16 kg/m3 | 991.63 ± 0.15 kg/m3 | 1045.39 ± 0.18 kg/m3 and 1045.24 ± 0.18 kg/m3
348.15 K | 978.24 ± 0.18 kg/m3 | 981.59 ± 0.17 kg/m3 | 985.88 ± 0.16 kg/m3 | 1039.4 ± 0.18 kg/m3 and 1039.32 ± 0.18 kg/m3
358.15 K | 972 ± 0.18 kg/m3 | 975.36 ± 0.17 kg/m3 | 979.63 ± 0.16 kg/m3 | 1033.07 ± 0.17 kg/m3 and 1032.97 ± 0.17 kg/m3
368.15 K | 965.29 ± 0.18 kg/m3 | 968.63 ± 0.18 kg/m3 | 972.92 ± 0.17 kg/m3 | 1026.26 ± 0.17 kg/m3 and 1026.2 ± 0.17 kg/m3

Reference: the NIST ThermoML archive (doi:10.1016/j.jct.2006.09.008)
